Assays:
[1] = xn = mol fraction of the nth substance listed; conditions: 101 kPa, Liquid
[2] = excess molar enthalpy (molar enthalpy of mixing); xn = mol fraction of the nth substance listed; conditions: 101 kPa, Liquid

CCCC[n+]1cccc(C)c1.F[B-](F)(F)F [1-butyl-3-methylpyridinium tetrafluoroborate] + CO
Conditions	excess molar enthalpy [kcal/mol]	mass density [kg/m3]
[1], 298.15 K, x1 = 0.0493	–	873.4
[1], 298.15 K, x1 = 0.0629	–	893.1
[1], 298.15 K, x1 = 0.0986	–	934.4
[1], 298.15 K, x1 = 0.1499	–	979.6
[1], 298.15 K, x1 = 0.2007	–	1014.7
[1], 298.15 K, x1 = 0.2956	–	1061.6
[1], 298.15 K, x1 = 0.4052	–	1098.2
[1], 298.15 K, x1 = 0.5128	–	1122.8
[1], 298.15 K, x1 = 0.6009	–	1138.7
[1], 298.15 K, x1 = 0.6913	–	1151.7
[1], 298.15 K, x1 = 0.7611	–	1159.7
[1], 318.15 K, x1 = 0.0557	–	865.7
[1], 318.15 K, x1 = 0.1052	–	924.3
[1], 318.15 K, x1 = 0.1493	–	964
[1], 318.15 K, x1 = 0.2479	–	1025.1
[1], 318.15 K, x1 = 0.3016	–	1048.4
[1], 318.15 K, x1 = 0.3944	–	1079.5
[1], 318.15 K, x1 = 0.497	–	1104.7
[1], 318.15 K, x1 = 0.5868	–	1121.6
[1], 318.15 K, x1 = 0.7088	–	1139.8
[1], 318.15 K, x1 = 0.855	–	1156.2
[1], 318.15 K, x1 = 0.9465	–	1164.4
[2], 298.15 K, x1 = 0.0057	0.0261	–
[2], 298.15 K, x1 = 0.0149	0.0545	–
[2], 298.15 K, x1 = 0.0279	0.0923	–
[2], 298.15 K, x1 = 0.044	0.13	–
[2], 298.15 K, x1 = 0.0635	0.167	–
[2], 298.15 K, x1 = 0.0842	0.202	–
[2], 298.15 K, x1 = 0.1071	0.237	–
[2], 298.15 K, x1 = 0.1312	0.271	–
[2], 298.15 K, x1 = 0.1585	0.308	–
[2], 298.15 K, x1 = 0.1851	0.332	–
[2], 298.15 K, x1 = 0.2119	0.359	–
[2], 298.15 K, x1 = 0.2357	0.373	–
[2], 298.15 K, x1 = 0.2672	0.382	–
[2], 298.15 K, x1 = 0.3069	0.386	–
[2], 298.15 K, x1 = 0.3541	0.383	–
[2], 298.15 K, x1 = 0.41	0.377	–
[2], 298.15 K, x1 = 0.4816	0.361	–
[2], 298.15 K, x1 = 0.5621	0.33	–
[2], 298.15 K, x1 = 0.7167	0.257	–
[2], 298.15 K, x1 = 0.7441	0.227	–
[2], 298.15 K, x1 = 0.8438	0.158	–
[2], 298.15 K, x1 = 0.9196	0.0942	–
[2], 298.15 K, x1 = 0.9707	0.0416	–
[2], 318.15 K, x1 = 0.0159	0.0588	–
[2], 318.15 K, x1 = 0.0352	0.121	–
[2], 318.15 K, x1 = 0.0581	0.173	–
[2], 318.15 K, x1 = 0.0823	0.224	–
[2], 318.15 K, x1 = 0.1098	0.281	–
[2], 318.15 K, x1 = 0.1382	0.336	–
[2], 318.15 K, x1 = 0.1674	0.39	–
[2], 318.15 K, x1 = 0.197	0.43	–
[2], 318.15 K, x1 = 0.2147	0.462	–
[2], 318.15 K, x1 = 0.2317	0.488	–
[2], 318.15 K, x1 = 0.2641	0.512	–
[2], 318.15 K, x1 = 0.2984	0.533	–
[2], 318.15 K, x1 = 0.3343	0.544	–
[2], 318.15 K, x1 = 0.3787	0.548	–
[2], 318.15 K, x1 = 0.4391	0.538	–
[2], 318.15 K, x1 = 0.5504	0.477	–
[2], 318.15 K, x1 = 0.6911	0.349	–
[2], 318.15 K, x1 = 0.8526	0.191	–

— the NIST ThermoML archive (doi:10.1021/je700294p)
